Experimental data from ChEMBL document CHEMBL1122466, “Synthesis of partially modified retro-inverso substance P analogues and their biological activity” (1983).
Residues, ends and D or L forms follow the SMILES beside them.

What was measured:
Cavia porcellus [1] = species: Cavia porcellus; assay: ED50 represents the concentration of the agonist in the organ bath corresponding to 50% of the maximal measured spasmogenic effect.; assay type: functional
Cavia porcellus [2] = species: Cavia porcellus; assay: Relative potency in guinea pig ileum assay.; assay type: functional

SMILES	ED50 (Cavia porcellus [1]) [nM]	Relative potency (Cavia porcellus [2])
CSCC[C@@H](NC(=O)[C@H](CC(C)C)NC(=O)CC(=O)N[C@H](Cc1ccccc1)NC(=O)[C@@H](Cc1ccccc1)NC(=O)[C@@H]1CCC(=O)N1)C(N)=O	0.9	22
CSCC[C@H](NC(=O)[C@H](CC(C)C)NC(=O)CNC(=O)[C@H](Cc1ccccc1)NC(=O)[C@@H](Cc1ccccc1)C(=O)N[C@@H]1CCC(=O)N1)C(N)=O (HELM PEPTIDE1{[O=C1CC[C@@H](NC(=O)[C@H](Cc2ccccc2)C(=O)[*:2])N1].F.G.L.M.[am]}$$$$V2.0)	–	<0.01
